Results published in patent publication US4324788A, “Alkoxyalkylidenhydrazinopridazines and process for their preparation” (I.S.F. S.p.A., priority 1979, dated 1982).
Structures can show the parent of a compound that is named as a salt. Where two headings read alike, the source gives them in different places.

What was measured:
[1] = system: genetically hypertensive rats; assay: Arterial pressure and heart rate per os in genetically hypertensive rats (SHR); format: in vivo, rat (genetically hypertensive; details: for ED25: po, read-out: BP DE25 (ED25, dose giving a drop of the blood pressure of 25%); for HR DE25 (ED25, dose giving an increase of the heart rate of 25%): > = no increase of the heart rate at the maximal tested dose
From the text: activity on the arterial pressure and on the heart rate has been studied per os in genetically hypertensive rats according to the method described in Pharm. Research Comm.

strips of rabbit aorta = assay: Spasmolytic activity in vitro on strips of rabbit aorta with potassium chloride induced spasm; format: cell-based; details: Oryctolagus cuniculus, spasm with 30 mM potassium chloride, read-out: EC50 (relaxing 50% the strip of rabbit aorta)
Description: spasmolytic activity is determined evaluating the direct relaxant effect on the vasal smooth muscle in vitro on strips of rabbit aorta in which spasm was induced by potassium chloride according to the method described in Journ. of Pharm. and Exper. […] The products were added at sequentially cumulative molar doses and their activity indicated as Effective Concentration (EC50).

in vivo = details: mouse, ip
[2] = system: guinea-pig isolated atria; details: isoprenaline agonist, product at 10^-4 M
[3] = SHR rat, per os, at the moment of maximum effect

SMILES	ED25 ([1]; Rattus norvegicus)	HR DE25 (ED25, dose giving an increase of the heart rate of 25%) ([1]; SHR rat, per os)	EC50 (strips of rabbit aorta)	ED25 [1, 3]	LD50 (in vivo)	DR4 (dose ratio of agonist EC50 in the presence and in the absence of the product) [2]
CC(C)NCC(O)COc1cccc2ccccc12 (stereo not drawn) [Propanolol, reference compound]	> 400 mg/kg	> 100 mg/kg/os				
CC(CCc1ccccc1)NCC(O)c1ccc(O)c(C(N)=O)c1 (stereo not drawn) [Labetalol, reference compound]		> 100 mg/kg/os	> 10000 µM	400 mg/kg		
CC(C)=NNc1ccc(OCC(O)CNC(C)CCc2ccccc2)nn1.Cl.Cl (stereo not drawn) [3-[3-(4-phenyl-2-butyl)amino-2-hydroxypropoxy]6-isopropylidenhydrazinopyridazine dihydrochloride]		> 40 mg/kg/os		17 mg/kg	200 mg/kg	80
CC(C)=NNc1ccc(OCC(O)CNC(C)(C)C)nn1 (stereo not drawn) [3-(3-t.Butylamino-2-hydroxypropoxy)-6-isopropylidenhydrazinopyridazine dihydrochloride]		> 100 mg/kg/os		50 mg/kg	500 mg/kg	78
NNc1nncc2ccccc12 [Hydralazine, reference compound]		6.0 mg/kg/os	680 µM	8.1 mg/kg		1
CCC(C)NCC(O)COc1ccc(NN=C(C)C)nn1.Cl.Cl (stereo not drawn) [3-[3-(2-butyl)amino-2-hydroxypropoxy]6-isopropylidenhydrazinopyridazine dihydrochloride]		> 50 mg/kg/os		25 mg/kg	300 mg/kg	72
COc1ccc(CCNCC(O)COc2ccc(NN=C(C)C)nn2)cc1OC.Cl.Cl (stereo not drawn) [3-{3[2(3,4-dimethoxyphenyl)ethyl]amino-2-hydroxypropoxy}6-isopropylidenhydrazinopyridazine dihydrochloride]		> 60 mg/kg/os		39 mg/kg	300 mg/kg	531
CC(C)=NNc1ccc(OCC(O)CNC(C)C)nn1.Cl.Cl (stereo not drawn) [3-(3-Isopropylamino-2-hydroxypropoxy)-6-isopropylidenhydrazinopyridazine dihydrochloride]		> 100 mg/kg/os	1700 µM	350 mg/kg	500 mg/kg	77
